≈ marks a conversion by molar mass, not a printed value.

The target of the first data set is T1, Na^+/H^+-Exchangers von Kaninchenerythrocyten (Oryctolagus cuniculus, UniProt P23791).
T1 construct: den Na^+-Influx in die Erythrocyten via Na^+/H^+-Austausch flammenphotometrisch bestimmen zu können; endogenous in cells; host or cells: erythrocytes in whole blood from the ear arteries of New Zealand White rabbits
T1 sequence (P23791 whole entry): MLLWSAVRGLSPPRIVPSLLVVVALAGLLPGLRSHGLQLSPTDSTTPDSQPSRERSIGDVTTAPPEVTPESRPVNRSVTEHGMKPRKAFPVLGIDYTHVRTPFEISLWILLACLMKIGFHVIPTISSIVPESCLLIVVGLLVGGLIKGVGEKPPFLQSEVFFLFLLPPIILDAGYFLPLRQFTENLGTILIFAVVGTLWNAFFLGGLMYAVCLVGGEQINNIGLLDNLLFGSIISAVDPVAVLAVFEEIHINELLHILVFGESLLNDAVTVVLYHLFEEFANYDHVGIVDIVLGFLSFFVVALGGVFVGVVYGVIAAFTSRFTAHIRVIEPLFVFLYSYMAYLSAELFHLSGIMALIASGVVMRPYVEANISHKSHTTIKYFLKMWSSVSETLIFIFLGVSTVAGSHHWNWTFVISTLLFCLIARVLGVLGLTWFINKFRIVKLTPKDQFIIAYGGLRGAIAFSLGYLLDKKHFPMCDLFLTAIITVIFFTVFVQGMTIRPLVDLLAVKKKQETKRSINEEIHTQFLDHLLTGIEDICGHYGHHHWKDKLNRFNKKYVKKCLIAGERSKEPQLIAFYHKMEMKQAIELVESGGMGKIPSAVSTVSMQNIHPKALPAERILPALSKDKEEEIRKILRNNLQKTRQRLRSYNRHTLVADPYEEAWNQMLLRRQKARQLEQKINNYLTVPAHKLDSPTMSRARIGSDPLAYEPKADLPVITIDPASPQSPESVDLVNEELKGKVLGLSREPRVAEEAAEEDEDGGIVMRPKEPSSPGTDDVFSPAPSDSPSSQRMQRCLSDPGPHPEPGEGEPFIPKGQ
Kind of data set: Inhibition of the Na+/H+ exchanger of rabbit erythrocytes (amiloride-sensitive Na+ influx, flame photometry). The class given is cell-based, Kaninchen. Conditions: Inhibition des Na^+/H^+-Exchangers; erythrocytes of cholesterol-fed rabbits, hyperosmolar salt-sucrose medium, pH 7,4, 37°C. An excerpt: Inhibition des Na^+/H^+-Exchangers von Kaninchenerythrocyten
Weiße Neuseeland-Kaninchen (Ivanovas) erhielten eine Standard-Diät mit 2 % Cholesterin für sechs Wochen, um den Na^+/H^+-Austausch zu aktivieren und so den Na^+-Influx in die Erythrocyten via Na^+/H^+-Austausch flammenphotometrisch bestimmen zu können. Das Blut wurde den Ohrarterien entnommen und durch 25 IE Kalium-Heparin ungerinnbar gemacht. Ein Teil jeder Probe wurde zur Doppelbestimmung des Hämatokrits durch Zentrifugieren benutzt. Aliquots von jeweils 100 µl dienten zur Messung des Na^+-Ausgangsgehalts der Erythrocyten.
Um den Amilorid-sensitiven Natrium-lnflux zu bestimmen, wurden 100 µl jeder Blutprobe in jeweils 5 ml eines hyperosmolaren Salz-Sucrose-Mediums (mmol/l: 140 NaCl, 3 KCI, 150 Sucrose, 0,1 Ouabain, 20 Tris-hydroxymethyl-aminomethan) bei pH 7,4 und 37°C inkubiert. Die Erythrocyten wurden danach dreimal mit eiskalter MgCl2-Ouabain-Lösung (mmol/l: 112 MgCl2, 0,1 Ouabain) gewaschen und in 2,0 ml destilliertem Wasser hämolysiert. Der intrazelluläre Natriumgehalt wurde flammenphotometrisch bestimmt.
Der Na^+-Nettoinflux wurde aus der Differenz zwischen Natrium-Ausgangswerten und dem Natriumgehalt der Erythrocyten nach Inkubation errechnet. Der Amiloridhemmbare Natrium-lnflux ergab sich aus der Differenz des Natriumgehalts der Erythrocyten nach Inkubation mit und ohne Amilorid 3 x 10-4 mol/l. Auf diese Weise wurde auch bei den erfindungsgemäßen Verbindungen verfahren.
Usually IC50 stands for the concentration that inhibits the measured activity by half. Turning to `CN(C)CCNS(=O)(=O)c1ccc(Oc2ccc(C(=O)N=C(N)N)cc2C(F)(F)F)cc1` [Beispiel 8, 4-[4-(N-Dimethylaminoethyl)sulfamoyl]phenoxy-3-trifluormethylbenzoylguanidin], the half-maximal inhibitory concentration (IC50) is 5 nM.

Take `CS(=O)(=O)c1cc(C(=O)N=C(N)N)ccc1Oc1ccc(C(=O)N=C(N)N)cc1` [Beispiel 18, 4-[(4-Guanidinocarbonyl)phenoxy]-3-methylsulfonylbenzoylguanidin]: the IC50 was 200 nM. The same measure, in the same setting: next, `NC(N)=NC(=O)c1ccc(Oc2ccc(S(N)(=O)=O)cc2)c(C(F)(F)F)c1` [Beispiel 1, 4-(4-Aminosulfonyl)phenoxy-3-trifluormethyl-benzoylguanidin]: 800 nM; `CN(C)CCSCc1ccc(Oc2ccc(C(=O)N=C(N)N)cc2C(F)(F)F)cc1` [Beispiel 19, 4-[4-(2-Dimethylaminoethyl)thiomethyl-phenoxy]-3-trifluormethylbenzoylguanidin]: 8 nM. `CN(C)CCCNS(=O)(=O)c1ccc(Oc2ccc(C(=O)N=C(N)N)cc2C(F)(F)F)cc1` [Beispiel 7, 4-[4-(N-Dimethylamino-n-propyl)sulfamoyl]phenoxy-3-trifluormethylbenzoylguanidin]: the IC50 was 60 nM. Regarding `CN(C)CCc1ccc(Oc2ccc(C(=O)N=C(N)N)cc2S(C)(=O)=O)cc1` [Beispiel 14, 3-Methylsulfonyl-[4-(2-dimethylaminoethyl)phenoxy]benzoyl-guanidin], the IC50 is 50 nM. On the same count and under the same terms, next, `CN1CCN(S(=O)(=O)c2ccc(Oc3ccc(C(=O)N=C(N)N)cc3C(F)(F)F)cc2)CC1` [Beispiel 4, 4-[4-(4-Methylpiperazinosulfonyl)phenoxy]-3-trifluormethylbenzoylguanidin]: 82 nM.

On to `NC(N)=NC(=O)c1ccc(Oc2ccc(S(=O)(=O)NCCN3CCCC3)cc2)c(C(F)(F)F)c1` [Beispiel 5, 4-[4-(2-Pyrolidinethylaminosulfonyl)phenoxy]-3-trifluormethylbenzoylguanidin], for which the IC50 was determined as 300 nM. As to `CN(C)CCN(C)S(=O)(=O)c1ccc(Oc2ccc(C(=O)N=C(N)N)cc2C(F)(F)F)cc1` [Beispiel 3, 4-[4-N-(Dimethylaminoethyl)-methylsulfamoyl]phenoxy-3-trifluormethylbenzoylguanidin], the IC50 worked out at 50 nM. Same read-out and setting: the same measure for `CN(C)CCS(=O)(=O)Cc1ccc(Oc2ccc(C(=O)N=C(N)N)cc2C(F)(F)F)cc1` [Beispiel 47, 4-[4-(2-Dimethylaminoethyl)sulfonylmethyl-phenoxy]-3-trifluormethylbenzoyl-guanidin]: 70 nM; for `CN(C)CCS(=O)(=O)c1ccc(Oc2ccc(C(=O)N=C(N)N)cc2S(C)(=O)=O)cc1` [Beispiel 17, 4-[4-(2-Dimethylaminoethylsulfonyl)phenoxy]-3-methylsulfonylbenzoylguanidin]: 1000 nM. Still for that read-out and setting: the same measure for `N=S(N)(=O)c1ccc(Oc2ccc(C(=O)N=C(N)N)cc2C(F)(F)F)cc1` (stereo not shown) [Beispiel 9, 4-(4-lmidamidosulfonyl)phenoxy-3-trifluormethyl-benzoylguanidin]: 100 nM; for `CN=C(NC)SCC(=O)c1ccc(Oc2ccc(C(=O)N=C(N)N)cc2S(C)(=O)=O)cc1` [Beispiel 28, 4-[4-(N,N'-Dimethyl-S-isothiuronyl-acetyl)phenoxy]-3-methylsulfonylbenzoylguanidin]: 120 nM. As for `CN(C)CCSCc1ccc(Oc2ccc(C(=O)N=C(N)N)cc2S(C)(=O)=O)cc1` [Beispiel 15, 4-[4-(2-Dimethylaminoethyl)thiomethyl-phenoxy]-3-methylsulfonylbenzoyl-guanidin], the IC50 amounted to 10 nM.

On to `CS(=O)(=O)c1cc(C(=O)N=C(N)N)ccc1Oc1ccc(C(O)Cn2ccnc2)cc1` (stereo not shown) [Beispiel 32, 4-[4-(2-N-lmidazolyl-1-hydroxyethyl)phenoxy]-3-methylsulfonylbenzoylguanidin], for which the IC50 came to 440 nM. Same read-out and setting: next, `CN(C)CCS(=O)(=O)Cc1ccc(Oc2ccc(C(=O)N=C(N)N)cc2S(C)(=O)=O)cc1` [Beispiel 46, 4-[4-(2-Dimethylaminoethyl)sulfonylmethyl-phenoxy]-3-methylsulfonylbenzoyl-guanidin]: 90 nM. Same read-out and setting: the same measure for `NC(N)=NC(=O)c1ccc(Oc2ccc(S(=O)(=O)NCCN3CCCCC3)cc2)c(C(F)(F)F)c1` [Beispiel 6, 4-[4-(2-Piperidinethylaminosulfonyl)phenoxy]-3-trifluormethylbenzoylguanidin]: 100 nM. `CN(C)CCSc1ccc(Oc2ccc(C(=O)N=C(N)N)cc2S(C)(=O)=O)cc1` [Beispiel 16, 4-[4-(2-Dimethylaminoethylthio)phenoxy]-3-methylsulfonylbenzoylguanidin]: the concentration for half-maximal inhibition (IC50) came out at 160 nM. On the same count and under the same terms, the same measure for `CN(C)CCc1ccc(Oc2ccc(C(=O)N=C(N)N)cc2C(F)(F)F)cc1` [Beispiel 21, 3-Trifluormethyl-4-[4-(2-dimethylaminoethyl)phenoxy]benzoyl-guanidin]: 14 nM; for `CS(=O)(=O)c1cc(C(=O)N=C(N)N)ccc1Oc1ccc(S(N)(=O)=O)cc1` [Beispiel 33, 3-Methylsulfonyl-4-(4-sulfamoylphenoxy)benzoylguanidin]: 200 nM; for `CN(C)CCSc1ccc(Oc2ccc(C(=O)N=C(N)N)cc2C(F)(F)F)cc1` [Beispiel 20, 4-[4-(2-Dimethylaminoethylthio)phenoxy]-3-trifluormethylbenzoylguanidin]: 40 nM. The same measure, in the same setting: next, “4-[4-(N-t-Butylimido-N'-t-butyl)sulfamoyl]-3-trifluormethyl-benzoylguanidin [Beispiel 2]”: 320 nM.

Tested on in the next data set: not listed separately
Kind of data set: Water solubility. Format: physicochemical. The settings on record: Dihydrochlorid, pH = 5.3, read-out: Wasserlöslichkeit.
In the case of `CN(C)CCc1ccc(Oc2ccc(C(=O)N=C(N)N)cc2C(F)(F)F)cc1` [Beispiel 21, 3-Trifluormethyl-4-[4-(2-dimethylaminoethyl)phenoxy]benzoyl-guanidin], the solubility was determined as 49 mg/mL (≈ 124 mM).

For a further data set, the system named is Rattenherzen.
Experiment: not given
The settings on record: isolated rat hearts; Eur. Heart J. 9 (suppl.1): 167 (1988); cited from earlier work.
As for `CCN(c1nc(N)c(C(=O)N=C(N)N)nc1Cl)C(C)C` [Ethylisopropylamilorid], the “künstlich ausgelöstes Kammerflimmern” value is listed as “Noch potenter als Amilorid”. With `NC(N)=NC(=O)c1nc(Cl)c(N)nc1N` [Amilorid], the “künstlich ausgelöstes Kammerflimmern” value was “völlig unterdrückt”.

The record behind these values is patent EP0723956B1, “Basically substituted benzoylguanidines, process for their preparation, their use as medicaments or diagnostics as well as medicaments containing them” (HOECHST AKTIENGESELLSCHAFT, priority 1995, dated 1996).
